Reference: PMC7501296, “Rapid and direct control of target protein levels with VHL-recruiting dTAG molecules” (Nature Communications, 2020)
“And” between values parts separate entries of the source, which are not always exact repeats. Equal entries are not always repeated.

Assays:
luciferase-FKBP12^F36V = molecular target: T1, luciferase-FKBP12^F36V (Homo sapiens, UniProt P62942, F37V); assay: Pharmacodynamic evaluation: bioluminescence of MV4;11 luc-FKBP12F36V cells in mice; format: in vivo, mice (NSG); design: Total flux for each mouse: unit not given here; settings: for Total flux for each mouse: single mice
T1 construct: luciferase (fusion partner); expressed in transfected cells; host or cells: MV4;11 cells transplanted into NSG mice
T1 sequence (P62942 2-108 F37V limits assumed): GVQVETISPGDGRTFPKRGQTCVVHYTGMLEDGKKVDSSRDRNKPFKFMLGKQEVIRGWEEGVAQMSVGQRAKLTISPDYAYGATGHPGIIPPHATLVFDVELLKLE
Text: For IP injections, dTAG-13 and dTAG^V-1 were formulated by dissolving into DMSO and then diluting with 20% solutol (Sigma): 0.9% sterile saline (Moltox) (w:v) with the final formulation containing 5% DMSO. […] Formulations were stable at room temperature for 7 days. For IV injections, dTAG-13 and dTAG^V-1 were formulated by dissolving into DMSO and then diluting with 5% solutol (Sigma): 0.9% sterile saline (Moltox) (w:v) with the final formulation containing 5% DMSO.
All procedures for PD studies were compliant with ethical regulations for animal testing and research, and were approved by and performed in accordance with standards of the IACUC at Dana–Farber Cancer Institute. Housing conditions for mice at Dana–Farber Cancer Institute were as follows: lights on = 6 AM, lights off = 6 PM, average ambient temperature = 72 °F, and average humidity = 35–55%. Evaluation of degradation of luciferase in vivo was performed using MV4;11 luc-FKBP12^F36V cells and bioluminescent measurements[6],[48]. In brief, 250,000 viable MV4;11 luc-FKBP12^F36V cells were transplanted by tail-vein injection in 8-week-old immunocompromised female mice (NOD.Cg-Prkdc^scidIl2rg^tm1Wjl/SzJ, NSG; Jackson Laboratory, #005557). Bioluminescent measurements were performed following IP injection of 75 mg kg^−1 D-Luciferin (Promega). Mice were then anesthetized with 2−3% isoflurane, imaged on an IVIS Spectrum (Caliper Life Sciences), and total body bioluminescence was determined using a standardized region of interest. Two and seven days after tail-vein injection, bioluminescent measurements were performed to confirm engraftment. […] For treatments, compounds were formulated as described above, administered via IP injection and bioluminescent measurements were performed daily as described in Fig. 2d, beginning 8 days after tail-vein injection.

[1] = test system: EWS502 FKBP12^F36V-EWS/FLI; EWS/FLI^−/− cells; assay: Relative growth of EWS502 FKBP12F36V-EWS/FLI; EWS/FLI-/- cells (CellTiter-Glo); format: cell-based; settings: for Relative growth (luminescence values relative to day 0): EWS502 FKBP12F36V-EWS/FLI, EWS/FLI-/-; for Antiproliferation (relative growth): replicate values; for Antiproliferative effects upon EWS/FLI degradation: longer time-points
Description: (§1) Cell viability was assayed in 2D-adherent or ultra-low adherent 3D-spheroids using CellTiter-Glo (Promega)[6],[15]. Luminescence was measured on an Envision 2104 plate reader (PerkinElmer) and Fluostar Omega Reader (BMG Labtech) and data was analyzed using GraphPad PRISM v8. Synergy assessments were performed using CellTiter-Glo (Promega) with the following modifications to the protocol described in the ref. [34]. In brief, EWS502 cells were plated at 1000 cells per well in 50 µL of appropriate media in 384-well white culture plates (Corning) allowed to adhere overnight, and 100 nL of compounds were added using a Janus Workstation pin tool (PerkinElmer) for 72 h. Cell viability was measured by addition of 10 µL of CellTiter-glo (Promega), followed by incubation for 15 minutes at room temperature. Luminescence was measured on an Envision 2104 plate reader (PerkinElmer) and data was analyzed using GraphPad PRISM v8.

[2] = test system: EWS502 FKBP12^F36V-GFP cells; assay: Relative growth of EWS502 FKBP12F36V-GFP cells (CellTiter-Glo); format: cell-based
Description: as §1

FKBP12^F36V-KRAS^G12V = molecular target: T2, FKBP12^F36V-KRAS^G12V (Homo sapiens, UniProt P01116+P62942, F37V/G12V); assay: Immunoblot of PATU-8902 FKBP12F36V-KRASG12V; KRAS-/- clone; format: cell-based; settings: time-course
T2 construct: KRAS G12V (fusion partner, same polypeptide); expressed in transfected cells
T2 sequence (P62942+P01116 fused P62942:F37V/P01116:G12V): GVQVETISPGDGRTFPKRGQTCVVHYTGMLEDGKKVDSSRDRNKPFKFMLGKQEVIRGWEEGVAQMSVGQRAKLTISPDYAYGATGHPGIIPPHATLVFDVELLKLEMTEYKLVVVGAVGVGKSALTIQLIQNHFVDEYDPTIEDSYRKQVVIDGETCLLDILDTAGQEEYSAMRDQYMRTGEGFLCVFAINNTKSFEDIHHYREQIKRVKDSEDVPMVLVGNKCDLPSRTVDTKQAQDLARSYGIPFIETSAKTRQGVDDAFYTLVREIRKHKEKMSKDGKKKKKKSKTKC
Description: PATU-8902 LACZ-FKBP12^F36V and FKBP12^F36V-KRAS^G12V; KRAS^−/− cells and 293T cells were lysed with RIPA buffer supplemented with cOmplete protease inhibitors (Roche), PhosSTOP phosphatase inhibitors (Roche), and 0.1% benzonase (Novagen). Proteins were separated using NuPAGE Bolt^TM Bis–Tris gels (Thermo Fisher Scientific) and transferred to nitrocellulose membranes, which were blocked with Odyssey Blocking Buffer (LI-COR) and incubated with primary antibodies overnight. Membranes were washed three times with TBS-T, incubated with the appropriate fluorescently labeled infrared secondary antibodies, washed again three times with TBS-T, and assessed using an Odyssey CLx Imager (LI-COR)[6],[15]. EWS502 cells were lysed with Cell Lysis Buffer (Cell Signaling Technology) supplemented with cOmplete protease inhibitors (Roche). Proteins were separated using SDS-PAGE gels and transferred to PVDF membranes, which were blocked with 5% milk in TBS-T and incubated with primary antibodies overnight. Membranes were washed five times with TBS-T, incubated with the appropriate horseradish peroxidase-conjugated secondary antibodies, washed again five times with TBS-T, and imaged. The following primary antibodies were employed in this study: HA (Cell Signaling Technology #3724 and #2367, dilution at 1:1000), phospho-ERK1/2 T202/Y204 (Cell Signaling Technology #4370, dilution at 1:1000), ERK1/2 (Cell Signaling Technology #4696, dilution at 1:1000), phospho-AKT S473 (Cell Signaling Technology #4060, dilution at 1:1000), AKT (Cell Signaling Technology #2920, dilution at 1:1000), FKBP12 (Abcam #ab24373, dilution at 1:1000), GFP (Cell Signaling Technology #2555, dilution at 1:1000), FLI (Abcam #ab15289, dilution at 1:2000), NKX2-2 (Abcam #ab187375, dilution at 1:1000), GAPDH (Cell Signaling Technology #2118, dilution at 1:3000), Vinculin (Cell Signaling Technology #13901, dilution at 1:3000), β-Actin (Cell Signaling Technology #58169, dilution at 1:3000), and α-Tubulin (Cell Signaling Technology #3873, dilution at 1:5000). Species-specific fluorescently labeled infrared secondary antibodies including IRDye 680LT anti-Mouse IgG (LI-COR #926-68020, dilution at 1:5000), IRDye 800CW anti-Mouse IgG (LI-COR #926-32210, dilution at 1:5000), IRDye 680LT anti-Rabbit IgG (LI-COR #926-68021, dilution at 1:5000), and IRDye 800CW anti-Rabbit IgG (LI-COR #926-32211, dilution at 1:5000) and peroxidase-linked secondary antibodies including anti-Mouse IgG (Thermo Fisher Scientific #45000680, dilution at 1:5000) and anti-Rabbit IgG (Thermo Fisher Scientific #45000682, dilution at 1:5000) were employed as appropriate.

[3] = Baseline (day 0, before treatment), MV4;11 luc-FKBP12F36V
[4] = No treatment (day 4), 28 h after third and final treatment
[5] = Treatment #1 (day 1), 4 h after 35 mg kg^−1 IP
[6] = Treatment #2 (day 2), 4 h after 35 mg kg^−1 IP
[7] = Treatment #3 (day 3), 4 h after 35 mg kg^−1 IP

| Structure (SMILES) | Bioluminescent signal 4 h after each of the three administrations (luciferase-FKBP12^F36V; 35 mg kg^−1 IP) | Total flux for each mouse (luciferase-FKBP12^F36V; [3]) | Total flux for each mouse (luciferase-FKBP12^F36V; [4]) | Total flux for each mouse (luciferase-FKBP12^F36V; [5]) | Total flux for each mouse (luciferase-FKBP12^F36V; [6]) | Total flux for each mouse (luciferase-FKBP12^F36V; [7]) | Relative growth (luminescence values relative to day 0) ([1]; day 0, technical replicates) | Relative growth (luminescence values relative to day 0) ([1]; day 3, technical replicates) | Relative growth (luminescence values relative to day 0) ([1]; day 5, technical replicates) | Relative growth (luminescence values relative to day 0) ([1]; day 7, technical replicates) | Antiproliferation (relative growth) ([1]; Time 0 days) | Antiproliferation (relative growth) ([1]; Time 3 days) | Antiproliferation (relative growth) ([1]; Time 5 days) | Antiproliferation (relative growth) ([1]; Time 7 days) | Antiproliferative effects upon EWS/FLI degradation [1] | Relative growth (luminescence values relative to day 0) ([2]; day 0, technical replicates) | Relative growth (luminescence values relative to day 0) ([2]; day 3, technical replicates) | Relative growth (luminescence values relative to day 0) ([2]; day 5, technical replicates) | Relative growth (luminescence values relative to day 0) ([2]; day 7, technical replicates) | KRASG12V degradation, immunoblot (FKBP12^F36V-KRAS^G12V) | other results |
| --- | --- | --- | --- | --- | --- | --- | --- | --- | --- | --- | --- | --- | --- | --- | --- | --- | --- | --- | --- | --- | --- |
| CC[C@H](C(=O)N1CCCC[C@H]1C(=O)O[C@H](CCc1ccc(OC)c(OC)c1)c1ccccc1OCC(=O)NCCCCCCOc1cccc2c1C(=O)N(C1CCC(=O)NC1=O)C2=O)c1cc(OC)c(OC)c(OC)c1 (stereo partly drawn) [dTAG-13] | Consistent loss of bioluminescent signal | 4289000 and 889100 and 3230000 and 316100 and 985400 | 49160000 and 34070000 and 76150000 and 45320000 | 6613000 and 7583000 and 6309000 and 11170000 and 4709000 | 5587000 and 3752000 and 2682000 and 8076000 and 3987000 | 7807000 and 6324000 and 1630000 and 11780000 and 6875000 |  |  |  |  |  |  |  |  |  |  |  |  |  |  |  |
| CC[C@H](C(=O)N1CCCC[C@H]1C(=O)O[C@H](CCc1ccc(OC)c(OC)c1)c1ccccc1OCC(=O)NCCCCCCC(=O)N[C@H](C(=O)N1C[C@H](O)C[C@H]1C(=O)N[C@@H](C)c1ccc(-c2scnc2C)cc1)C(C)(C)C)c1cc(OC)c(OC)c(OC)c1 [dTAG^V-1] | Consistent loss of bioluminescent signal | 1893000 and 1330000 and 3116000 and 1809000 and 3338000 | 601200 and 13590000 and 24710000 and 1755000 and 24650000 | 4041000 and 2159000 and 3736000 and 2539000 and 5912000 | 3135000 and 1001000 and 2876000 and 2693000 and 9211000 | 4741000 and 1924000 and 4372000 and 3069000 and 6943000 | 0.8696 and 1.038 (2×) and 1.097 and 0.9086 and 1.006 and 0.975 and 1.069 | 3.17 and 3.081 and 3.35 and 3.515 and 3.02 and 3.212 and 3.235 and 3.093 | 3.571 and 3.881 and 3.894 and 3.809 and 3.6579 and 3.634 and 3.713 and 3.678 | 4.1 and 3.846 and 4.015 and 4.459 and 4.182 and 3.984 and 3.963 and 4.228 | 1.031 and 1.006 and 0.9491 and 0.9896 and 1.023 and 0.9889 and 1.015 and 0.9988 | 3.562 and 3.604 and 3.659 and 3.498 and 3.439 and 4 and 3.9346 and 3.855 | 4.651 and 4.613 and 4.429 and 4.423 and 4.852 and 4.574 and 4.874 and 4.602 | 4.558 and 4.146 and 4.393 and 4.598 and 4.588 and 4.347 and 4.317 and 4.895 | Potent antiproliferative effects | 1.01 and 0.9846 and 0.9416 and 1.081 and 0.9895 and 0.8796 and 1.056 and 1.058 | 7.436 and 7.522 and 7.571 and 8.146 and 7.791 and 7.539 and 7.5229 and 8.295 | 12.9905 and 13.8226 (2×) and 13.4717 and 14.0465 and 14.5379 and 14.3196 and 15.9343 | 19.3543 and 18.2942 and 18.0829 and 20.64 and 18.2038 and 18.0695 and 17.6427 and 20.3483 | rapid KRAS^G12V degradation | Bioluminescent signal 4 h after the first administration (luciferase-FKBP12^F36V; 35 mg kg^−1 IP): Striking loss of bioluminescent signal; Duration of degradation (luciferase-FKBP12^F36V; 35 mg kg^−1 IP, after the final administration): degradation evident 28 h after the final administration |
| CCC(C(=O)N1CCCCC1C(=O)OC(CCc1ccc(OC)c(OC)c1)c1ccccc1OCC(=O)NCCCCCCC(=O)NC(C(=O)N1CC(O)CC1C(=O)NC(C)c1ccc(-c2scnc2C)cc1)C(C)(C)C)c1cc(OC)c(OC)c(OC)c1 (stereo not drawn) [dTAG^V-1-NEG] |  |  |  |  |  |  | 0.9945 and 0.95 and 1.001 and 0.9766 and 1.051 and 1.053 and 1.003 and 0.9709 | 5.114 and 5.468 and 5.612 and 5.24 and 5.293 and 5.6444 and 5.751 and 5.436 | 9.983 and 9.4493 and 9.47 and 9.104 and 8.952 and 10.1487 and 8.526 and 9.042 | 11.0059 and 11.6763 and 12.0315 and 12.3084 and 11.8629 and 11.627 and 12.7076 and 12.9032 | 0.9369 and 1.039 and 1.049 and 1.03 and 0.9405 and 1.006 and 0.9678 and 1.0315 | 6.723 and 6.994 and 7.2 and 7.295 and 6.686 and 6.901 and 6.814 and 7.587 | 15.6789 and 14.8903 and 15.2182 and 14.1831 and 15.4702 and 12.9669 and 13.0283 and 13.2307 | 17.0897 and 17.8515 and 16.9942 and 16.7495 and 17.7706 and 16.0177 and 15.7257 and 18.5474 | absent | 0.9807 and 0.9337 and 1.074 and 0.9661 and 0.9369 and 1.05 and 0.936 and 1.123 | 8.012 and 8.414 and 8.126 and 8.231 and 8.041 and 7.9927 and 8.641 and 7.789 | 16.2325 and 15.4561 and 17.0235 and 15.0335 and 14.9405 and 13.797 and 14.8812 and 15.4178 | 19.7372 and 19.9296 and 22.6222 and 21.4195 and 20.5619 and 20.5847 and 22.7467 and 21.3128 | not induced |  |
